Test results taken from the supplement of paper PMC10307832.

What was measured:
Experiment in all cases: relative viability (nuclei count vs DMSO), 5 days (fraction); higher = more cells survive
ABC-1 = test system: ABC-1
How it was run: (§1)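 Lung cancer cell lines were seeded in 1536-well plates and dosed by pin tool the next day, with either a single drug or a fixed anchor-drug dose combined with five library-drug doses (not always all listed) spaced in √10 steps. Five days later, one step fixed the cells and stained their nuclei (final 0.05% Triton X-100, 1% formaldehyde, 1 ug/ml Hoechst), and nuclei were counted on 4× images. Relative viability is the nuclei count in treated wells divided by the count in vehicle wells, and each value is the median of duplicate plates.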

COR-L 105 = test system: COR-L 105
How it was run: as §1

H3255 = test system: H3255
How it was run: as §1

HARA = test system: HARA
How it was run: as §1

HCC-15 = test system: HCC-15
How it was run: as §1

HCC-366 = test system: HCC-366
How it was run: as §1

LC-2-ad = test system: LC-2-ad
How it was run: as §1

LU99A = test system: LU99A
How it was run: as §1

NCI-H1437 = test system: NCI-H1437
How it was run: as §1

NCI-H1648 = test system: NCI-H1648
How it was run: as §1

NCI-H1666 = test system: NCI-H1666
How it was run: as §1

NCI-H1734 = test system: NCI-H1734
How it was run: as §1

NCI-H1915 = test system: NCI-H1915
How it was run: as §1

NCI-H1944 = test system: NCI-H1944
How it was run: as §1

NCI-H2347 = test system: NCI-H2347
How it was run: as §1

NCI-H460 = test system: NCI-H460
How it was run: as §1

NCI-H650 = test system: NCI-H650
How it was run: as §1

NCI-H727 = test system: NCI-H727
How it was run: as §1

NCI-H838 = test system: NCI-H838
How it was run: as §1

PC-14 = test system: PC-14
How it was run: as §1

RERF-LC-KJ = test system: RERF-LC-KJ
How it was run: as §1

SW 900 = test system: SW 900
How it was run: as §1

Oc1nc(-c2ccc(C(F)(F)F)cc2)nc2c1CSCC2 [XAV939] + Nc1ncn([C@H]2C[C@H](O)[C@@H](CO)O2)c(=O)n1 [Decitabine] (partner 2 µM)
relative viability (ABC-1; first compound 0.253 µM): 1.27
relative viability (ABC-1; first compound 0.8 µM): 0.975
relative viability (ABC-1; first compound 2.53 µM): 0.655
relative viability (COR-L 105; first compound 0.08 µM): 0.719
relative viability (COR-L 105; first compound 0.253 µM): 0.551
relative viability (COR-L 105; first compound 0.8 µM): 0.587
relative viability (COR-L 105; first compound 2.53 µM): 0.563
relative viability (H3255; first compound 0.08 µM): 0.637
relative viability (H3255; first compound 0.253 µM): 0.56
relative viability (H3255; first compound 0.8 µM): 0.576
relative viability (H3255; first compound 2.53 µM): 0.386
relative viability (HARA; first compound 0.08 µM): 0.552
relative viability (HARA; first compound 0.253 µM): 0.51
relative viability (HARA; first compound 0.8 µM): 0.626
relative viability (HARA; first compound 2.53 µM): 0.379
relative viability (HCC-15; first compound 0.08 µM): 0.702
relative viability (HCC-15; first compound 0.253 µM): 0.656
relative viability (HCC-15; first compound 0.8 µM): 0.656
relative viability (HCC-15; first compound 2.53 µM): 0.635
relative viability (HCC-366; first compound 0.08 µM): 0.329
relative viability (HCC-366; first compound 0.253 µM): 0.299
relative viability (HCC-366; first compound 0.8 µM): 0.326
relative viability (HCC-366; first compound 2.53 µM): 0.31
relative viability (LC-2-ad; first compound 0.08 µM): 0.786
relative viability (LC-2-ad; first compound 0.253 µM): 0.719
relative viability (LC-2-ad; first compound 0.8 µM): 0.872
relative viability (LC-2-ad; first compound 2.53 µM): 0.733
relative viability (LU99A; first compound 0.08 µM): 0.986
relative viability (LU99A; first compound 0.253 µM): 0.725
relative viability (LU99A; first compound 0.8 µM): 0.807
relative viability (LU99A; first compound 2.53 µM): 0.921
relative viability (NCI-H1437; first compound 0.08 µM): 0.626
relative viability (NCI-H1437; first compound 0.253 µM): 0.478
relative viability (NCI-H1437; first compound 0.8 µM): 0.539
relative viability (NCI-H1437; first compound 2.53 µM): 0.431
relative viability (NCI-H1648; first compound 0.253 µM): 0.423
relative viability (NCI-H1648; first compound 0.8 µM): 0.386
relative viability (NCI-H1648; first compound 2.53 µM): 0.438
relative viability (NCI-H1666; first compound 0.08 µM): 0.747
relative viability (NCI-H1666; first compound 0.253 µM): 0.674
relative viability (NCI-H1666; first compound 0.8 µM): 0.678
relative viability (NCI-H1666; first compound 2.53 µM): 0.531
relative viability (NCI-H1734; first compound 0.08 µM): 0.489
relative viability (NCI-H1734; first compound 0.253 µM): 0.433
relative viability (NCI-H1734; first compound 0.8 µM): 0.494
relative viability (NCI-H1734; first compound 2.53 µM): 0.475
relative viability (NCI-H1915; first compound 0.08 µM): 0.253
relative viability (NCI-H1915; first compound 0.253 µM): 0.25
relative viability (NCI-H1915; first compound 0.8 µM): 0.265
relative viability (NCI-H1915; first compound 2.53 µM): 0.268
relative viability (NCI-H1944; first compound 0.08 µM): 0.424
relative viability (NCI-H1944; first compound 0.253 µM): 0.439
relative viability (NCI-H1944; first compound 0.8 µM): 0.44
relative viability (NCI-H1944; first compound 2.53 µM): 0.403
relative viability (NCI-H2347; first compound 0.08 µM): 0.62
relative viability (NCI-H2347; first compound 0.253 µM): 0.586
relative viability (NCI-H2347; first compound 0.8 µM): 0.607
relative viability (NCI-H2347; first compound 2.53 µM): 0.517
relative viability (NCI-H460; first compound 0.08 µM): 0.599
relative viability (NCI-H460; first compound 0.253 µM): 0.443
relative viability (NCI-H460; first compound 0.8 µM): 0.501
relative viability (NCI-H460; first compound 2.53 µM): 0.458
relative viability (NCI-H650; first compound 0.08 µM): 0.286
relative viability (NCI-H650; first compound 0.253 µM): 0.305
relative viability (NCI-H650; first compound 0.8 µM): 0.33
relative viability (NCI-H650; first compound 2.53 µM): 0.325
relative viability (NCI-H727; first compound 0.08 µM): 0.805
relative viability (NCI-H727; first compound 0.8 µM): 0.934
relative viability (NCI-H727; first compound 2.53 µM): 0.653
relative viability (NCI-H838; first compound 0.08 µM): 0.488
relative viability (NCI-H838; first compound 0.253 µM): 0.442
relative viability (NCI-H838; first compound 0.8 µM): 0.458
relative viability (NCI-H838; first compound 2.53 µM): 0.384
relative viability (PC-14; first compound 0.08 µM): 0.203
relative viability (PC-14; first compound 0.253 µM): 0.224
relative viability (PC-14; first compound 0.8 µM): 0.165
relative viability (PC-14; first compound 2.53 µM): 0.18
relative viability (RERF-LC-KJ; first compound 0.08 µM): 0.717
relative viability (RERF-LC-KJ; first compound 0.253 µM): 0.657
relative viability (RERF-LC-KJ; first compound 0.8 µM): 0.583
relative viability (RERF-LC-KJ; first compound 2.53 µM): 0.552
relative viability (SW 900; first compound 0.253 µM): 0.454
relative viability (SW 900; first compound 0.8 µM): 0.438
relative viability (SW 900; first compound 2.53 µM): 0.428
